Values quoted from earlier work as cited in US20130109707A1, “FLUOROURACIL DERIVATIVES” (Concert Pharmaceuticals ,Inc., priority 2010, published 2013).

Conditions: patients treated with carmofur or with 5-fluorouracil; reported by Mixutani, Brain Nerve 2008

SMILES: O=c1[nH]cc(F)c(=O)[nH]1 [5-fluorouracil]
- cases of leukoencephalopathy: 0.026%

SMILES: CCCCCCNC(=O)n1cc(F)c(=O)[nH]c1=O [carmofur, 5-fluoro-N-hexyl-2,4-dioxo-pyrimidine-1-carboxamide]
- cases of leukoencephalopathy: 0.026%
